According to patent US9394297B2, “Amides as pim inhibitors” (AMGEN INC., priority 2012, dated 2016):

Legend:
Pim-1 = Pim-1 (Homo sapiens (Human), UniProt P11309); assay: Pim enzyme assay (HTRF, 96-well), Pim-1; format: biochemical; conditions: full length recombinant Pim-1, biotinylated-BAD (S112) peptide, 10-point curve, 2 h RT, read-out: Pim-1 IC50 IP
Text: (§1) These cDNAs were used as templates in PCR reactions to produce full-length DNA clones of the PIMs. […] PCR products were digested with BclI and EcoRI for Pim-1 and BamHI and EcoRI for Pim-2 and ligated into a modified baculovirus transfer vector (pFastBac1) cleaved with BamHI and EcoRI. For bacterial expression, the same cleaved PCR products encoding Pim-1 or Pim-2 were ligated into a modified E. coli expression vector pET28(a) cleaved with BamHI and EcoRI. Amino-terminal hexahistidine tags followed by a thrombin cleavage site were previously added to the vectors using standard methods of molecular biology.
(§2) Recombinant baculoviruses expressing Pim-1 or Pim-2 were made using standard methods (Fastbac manual, Invitrogen, Carlsbad, Calif.). […] Cells were harvested by centrifugation and frozen at −80 C. For E. coli expression, cells carrying pET28-His6-Th-Pim-1 or pET28-His6-Th-Pim-2 were picked from a single colony and grown o/n in LB media. The o/n culture was used to inoculate a 2 liter flask with 500 mL media. This was grown o/n and used to inoculate 15-20 liters of Terrific Broth in a New Brunswick Scientific fermentor. The E. coli were grown at 37° C. to and OD600 >1.6. The temperature was dropped to 18° C. and o/n expression was induced with 0.5 mM IPTG. Cells were harvested by centrifugation and frozen at −80° C.
(§3) The slurry was centrifuged at 1,000×g for 5 min, the supernatant decanted, and the resin suspended in 40 mL of lysis wash buffer (lysis buffer at 0.75 M NaCl). This step was repeated 3× and the resin was transferred to a 2.5 cm glass column. Ten column volumes of wash buffer (0.05 M HEPES, pH 8.0, 0.1 M NaCl, 0.01 M 2-mercaptoethanol, 10%(w/v) glycerol) were applied to the resin followed by 10 column volumes of elution buffer (0.05 M HEPES, pH 8.0, 0.25 M NaCl, 0.01 M 2-mercaptoethanol, 10%(w/v) glycerol, 0.1 M imidazole). Fractions were analyzed by SDS-PAGE and those containing the protein of interest were pooled and concentrated. The concentrated protein was applied to an Amersham Superdex 75 (XK 26/60) column equilibrated in 0.025 M Tris-HCl, pH 7.5, 0.1 M NaCl, 0.01 M 2-mercaptoethanol, 10% (w/v) glycerol. […] Fractions containing the monomeric protein of interest were pooled, concentrated to ˜2 mg/mL, and stored at −80° C.
(§4) The phosphorylation of biotinylated-BAD (S112) peptide by full length recombinant Pim-1, Pim-2, or Pim-3 protein was detected with streptavidin:Allophycocyanin (APC) conjugate and a europium (Eu) labeled antibody directed against phosphorylated-BAD (S112). […] The fluorescence is directly proportional to the amount of phosphorylated BAD peptide present in the reaction. […] A reference compound was included on each assay plate in order to validate that plate; on one plate of every assay run, two additional reference compounds were included. The final buffer conditions were as follows: 60 mM Hepes, pH 7.0, 0.05% BSA, 2 mM DTT. Incubations were carried out at RT (22° C.) for 2 h for Pim-1, 1 hour and 30 min for Pim-3, and 45 min for Pim-2. The reaction was stopped by the addition of 3 mM EDTA, and fluorescence was measured by an HTRF® Rubystar microplate reader. For each plate, percent of control (POC) values were calculated for each well. Values for the IC50 IP were estimated using a standard 4-parameter logistic model.

Pim-2 = Pim-2 (Homo sapiens (Human), UniProt Q9P1W9); assay: Pim enzyme assay (HTRF, 96-well), Pim-2; format: biochemical; conditions: full length recombinant Pim-2, biotinylated-BAD (S112) peptide, 10-point curve, 45 min RT, read-out: Pim-2 IC50 IP
Text: as §1, §2, §3, §4

Pim-1, sequence (P11309 whole entry): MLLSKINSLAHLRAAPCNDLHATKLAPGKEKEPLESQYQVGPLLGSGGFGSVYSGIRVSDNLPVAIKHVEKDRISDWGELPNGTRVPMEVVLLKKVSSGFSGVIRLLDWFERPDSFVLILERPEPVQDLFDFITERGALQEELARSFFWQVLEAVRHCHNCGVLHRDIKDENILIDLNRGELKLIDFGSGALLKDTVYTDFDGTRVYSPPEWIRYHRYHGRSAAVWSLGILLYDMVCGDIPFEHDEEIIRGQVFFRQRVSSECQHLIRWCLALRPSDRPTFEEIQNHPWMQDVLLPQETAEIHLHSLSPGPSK
Pim-2, sequence (Q9P1W9 whole entry): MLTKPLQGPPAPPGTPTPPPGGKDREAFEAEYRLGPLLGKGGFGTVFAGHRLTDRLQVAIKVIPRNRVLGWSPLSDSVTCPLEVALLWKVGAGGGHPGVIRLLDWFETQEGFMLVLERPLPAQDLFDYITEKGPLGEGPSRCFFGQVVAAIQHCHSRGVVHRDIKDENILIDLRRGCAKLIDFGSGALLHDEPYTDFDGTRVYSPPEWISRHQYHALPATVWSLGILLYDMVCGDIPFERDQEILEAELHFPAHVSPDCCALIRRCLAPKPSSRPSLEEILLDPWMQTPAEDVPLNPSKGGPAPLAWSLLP

Compound	IC50 (Pim-1) [nM]	IC50 (Pim-2) [nM]
COC(=O)[C@H](C)Nc1nc2c(-c3cc4c([nH]3)CCNC4=O)cccc2nc1C [Example 136, (S)-methyl 2-((3-methyl-8-(4-oxo-4,5,6,7-tetrahydro-1H-pyrrolo[3,2-c]pyridin-2-yl)quinoxalin-2-yl)amino)propanoate]	49.5	154
O=C1NCC(Cc2ccccc2)c2[nH]c(-c3cccc4cccnc34)cc21 (racemic) [Example 119, rac-7-benzyl-2-(quinolin-8-yl)-6,7-dihydro-1H-pyrrolo[3,2-c]pyridin-4(5H)-one]	39.4	206
O=C1NCCc2[nH]c(-c3cccc4ccc(OC5CCNCC5)nc34)cc21 [Example 81, 2-(2-(piperidin-4-yloxy)quinolin-8-yl)-6,7-dihydro-1H-pyrrolo[3,2-c]pyridin-4(5H)-one]	6	95.6
O=C1NCCc2[nH]c(-c3cccc4ccc(N[C@@H]5CCCNC5)nc34)cc21 [Example 124, (R)-2-(2-(piperidin-3-ylamino)quinolin-8-yl)-6,7-dihydro-1H-pyrrolo[3,2-c]pyridin-4(5H)-one]	6.4	141
O=C1NCCc2[nH]c(-c3cccc4ccc(-c5c(F)cccc5F)nc34)cc21 [Example 231, 2-(2-(2,6-difluorophenyl)quinolin-8-yl)-6,7-dihydro-1H-pyrrolo[3,2-c]pyridin-4(5H)-one]	8.1	91.9
COC(=O)[C@@H](C)Nc1nc2c(-c3cc4c([nH]3)CCNC4=O)cccc2nc1C [Example 137, (R)-methyl 2-((3-methyl-8-(4-oxo-4,5,6,7-tetrahydro-1H-pyrrolo[3,2-c]pyridin-2-yl)quinoxalin-2-yl)amino)propanoate]	96.7	74.1
COC(=O)N(c1ccccc1)c1ccc2cccc(-c3cc4c([nH]3)CCNC4=O)c2n1 [Example 46, Methyl (8-(4-oxo-4,5,6,7-tetrahydro-1H-pyrrolo[3,2-c]pyridin-2-yl)-2-quinolinyl)phenylcarbamate]	58.1	125
O=C1NCCc2[nH]c(-c3cccc4ccc(Nc5cccc(Cl)c5)nc34)cc21 [Example 40, 2-(2-((3-chlorophenyl)amino)-8-quinolinyl)-1,5,6,7-tetrahydro-4H-pyrrolo[3,2-c]pyridin-4-one]	1.8	14.3
O=c1[nH]ccc2[nH]c(-c3cccc4ccc(Oc5ccccc5)nc34)cc12 [Example 225, 2-(2-phenoxyquinolin-8-yl)-1H-pyrrolo[3,2-c]pyridin-4(5H)-one]	15.9	43.7
O=c1[nH]ccc2[nH]c(-c3cccc4ccc(Nc5ccccc5)nc34)nc12 [Example 189, 2-(2-(phenylamino)quinolin-8-yl)-1H-imidazo[4,5-c]pyridin-4(5H)-one 2,2,2-trifluoroacetate]	28.6	71.8
O=c1[nH]ccc2[nH]c(-c3cccc4ccc(Nc5c(F)cccc5Cl)nc34)cc12 [Example 12, 2-(2-((2-chloro-6-fluorophenyl)amino)quinolin-8-yl)-1H-pyrrolo[3,2-c]pyridin-4(5H)-one]	2	11

Results, then the molecule that gave them:

IC50 (Pim-1) [nM]	IC50 (Pim-2) [nM]	Compound
99.3	227	Cc1nc2cccc(-c3cc4c([nH]3)CCNC4=O)c2nc1N[C@@H](C)C(N)=O [Example 129, (S)-2-((3-methyl-8-(4-oxo-4,5,6,7-tetrahydro-1H-pyrrolo[3,2-c]pyridin-2-yl)quinoxalin-2-yl)amino)propanamide]
315	636	O=C1NCCc2[nH]c(-c3cccc4ccc(Cl)nc34)cc21 [Example 1, 2-(2-chloroquinolin-8-yl)-6,7-dihydro-1H-pyrrolo[3,2-c]pyridin-4(5H)-one]
19	181	C[C@@H](Nc1ccc2cccc(-c3cc4c([nH]3)CCNC4=O)c2n1)c1ccccc1 [Example 111, (R)-2-(2-((1-phenylethyl)amino)quinolin-8-yl)-6,7-dihydro-1H-pyrrolo[3,2-c]pyridin-4(5H)-one]
38.5	98.4	O=C1NCCc2[nH]c(-c3cccc4ccc(OCc5ccccc5)nc34)cc21 [Example 20, 2-(2-(benzyloxy)quinolin-8-yl)-6,7-dihydro-1H-pyrrolo[3,2-c]pyridin-4(5H)-one]
42.1	166	COc1ccc(Cl)cc1-c1ccc2cccc(-c3cc4c([nH]3)CCNC4=O)c2n1 [Example 88, 2-(2-(5-chloro-2-methoxyphenyl)quinolin-8-yl)-6,7-dihydro-1H-pyrrolo[3,2-c]pyridin-4(5H)-one]
46.6	340	O=C1NCCc2[nH]c(-c3cccc4ccc(O[C@@H]5CCCNC5)nc34)cc21 [Example 89, (R)-2-(2-(piperidin-3-yloxy)quinolin-8-yl)-6,7-dihydro-1H-pyrrolo[3,2-c]pyridin-4(5H)-one]
49.5	143	CS(=O)(=O)c1ccc(-c2ccc3cccc(-c4cc5c([nH]4)CCNC5=O)c3n2)c(F)c1 [Example 86, 2-(2-(2-fluoro-4-(methylsulfonyl)phenyl)quinolin-8-yl)-6,7-dihydro-1H-pyrrolo[3,2-c]pyridin-4(5H)-one]
29	182	C[C@H](Nc1ccc2cccc(-c3cc4c([nH]3)CCNC4=O)c2n1)c1ccccc1 [Example 112, (S)-2-(2-((1-phenylethyl)amino)quinolin-8-yl)-6,7-dihydro-1H-pyrrolo[3,2-c]pyridin-4(5H)-one]
19.8	80.9	Cc1cccc(C)c1Oc1ccc2cccc(-c3cc4c([nH]3)CCNC4=O)c2n1 [Example 101]
0.6	22.6	N[C@@H]1CCC[C@H](Nc2ccc3cccc(-c4cc5c([nH]4)CCNC5=O)c3n2)C1 (single isomer, unassigned) [Example 121, 2-(2-((cis-3-aminocyclohexyl)amino)quinolin-8-yl)-6,7-dihydro-1H-pyrrolo[3,2-c]pyridin-4(5H)-one]
23.3	52.9	Cc1ccc(C(N)=O)cc1-c1ccc2cccc(-c3cc4c([nH]3)CCNC4=O)c2n1 [Example 232, 4-methyl-3-(8-(4-oxo-4,5,6,7-tetrahydro-1H-pyrrolo[3,2-c]pyridin-2-yl)-2-quinolinyl)benzamide]
10.6	46.1	Nc1ccc(-c2ccc3cccc(-c4cc5c([nH]4)CCNC5=O)c3n2)c(F)c1 [Example 91, 2-(2-(4-amino-2-fluorophenyl)quinolin-8-yl)-6,7-dihydro-1H-pyrrolo[3,2-c]pyridin-4(5H)-one]
6.9	17.9	O=C1NCCc2[nH]c(-c3cccc4cnc(C5(c6ccccc6)CC5)nc34)cc21 [Example 244, 2-(2-(1-phenylcyclopropyl)quinazolin-8-yl)-6,7-dihydro-1H-pyrrolo[3,2-c]pyridin-4(5H)-one]
4.7	8.1	C=C(c1ccccc1)c1ccc2cccc(-c3cc4c([nH]3)CCNC4=O)c2n1 [Example 113, 2-(2-(1-phenylvinyl)quinolin-8-yl)-6,7-dihydro-1H-pyrrolo[3,2-c]pyridin-4(5H)-one]
204	222	Cc1nc2cccc(-c3cc4c([nH]3)CCNC4=O)c2nc1N[C@H](C)C(N)=O [Example 128, (R)-2-((3-methyl-8-(4-oxo-4,5,6,7-tetrahydro-1H-pyrrolo[3,2-c]pyridin-2-yl)quinoxalin-2-yl)amino)propanamide]
